Experimental data: ChEMBL document CHEMBL1142788, “Synthesis and antibacterial activity of alkyl derivatives of the glycopeptide antibiotic A40926 and their amides” (2005)
Values after ≈ are worked out from the molar mass of the structure shown.

Assays:
[1] = system: Enterococcus faecium; assay: Minimum inhibitory concentration against vancomycin-sensitive Enterococcus faecium in the presence of 30% bovine serum(n=1); assay type: functional
[2] = system: Staphylococcus epidermidis; assay: Minimum inhibitory concentration against methicillin-resistant Staphylococcus epidermidis in the presence of 30% bovine serum; assay type: functional
[3] = system: Enterococcus faecalis; assay: Minimum inhibitory concentration against vancomycin-A Enterococcus faecalis in the presence of 30% bovine serum (n=4); assay type: functional
[4] = system: Staphylococcus aureus; assay: Minimum inhibitory concentration against methicillin-resistant Staphylococcus aureus
[5] = system: Enterococcus faecium; assay: Minimum inhibitory concentration against vancomycin-A Enterococcus faecium in the presence of 30% bovine serum (n=1) (range = 64>128mg/L); assay type: functional
[6] = system: Staphylococcus epidermidis; assay: Minimum inhibitory concentration against methicillin-sensitive Staphylococcus epidermidis in the presence of 30% bovine serum; assay type: functional
[7] = system: Enterococcus faecalis; assay: Minimum inhibitory concentration against vancomycin-sensitive Enterococcus faecalis in the presence of 30% bovine serum(n=3)(range = 0.5-1 mg/l); assay type: functional
[8] = system: Staphylococcus haemolyticus; assay: Minimum inhibitory concentration against Staphylococcus haemolyticus in the presence of 30% bovine serum; assay type: functional
[9] = system: Staphylococcus aureus; assay: Minimum inhibitory concentration against methicillin-sensitive Staphylococcus aureus
[10] = system: Enterococcus faecalis; assay: Minimum inhibitory concentration against vancomycin-sensitive Enterococcus faecalis in the presence of 30% bovine serum(n=3); assay type: functional
[11] = system: Enterococcus faecium; assay: Minimum inhibitory concentration against vancomycin-A Enterococcus faecium in the presence of 30% bovine serum (n=1) (range = 2-128mg/L); assay type: functional
[12] = system: Enterococcus faecalis; assay: Minimum inhibitory concentration against vancomycin-A Enterococcus faecalis (n=4) (range = 4-128mg/L)
[13] = system: Enterococcus faecalis; assay: Minimum inhibitory concentration against vancomycin-A Enterococcus faecalis in the presence of 30% bovine serum(n=4) (range = 64-128mg/L); assay type: functional
[14] = system: Enterococcus faecalis; assay: Minimum inhibitory concentration against vancomycin-A Enterococcus faecalis in the presence of 30% bovine serum(n=4) (range = 128>128 mg/L); assay type: functional
[15] = system: Enterococcus faecalis; assay: Minimum inhibitory concentration against vancomycin-sensitive Enterococcus faecalis in the presence of 30% bovine serum(n=3)(range = 0.25-0.5mg/l); assay type: functional
[16] = system: Enterococcus faecium; assay: Minimum inhibitory concentration against vancomycin-A Enterococcus faecium in the presence of 30% bovine serum (n=1) (range = 4>128mg/L); assay type: functional
[17] = system: Enterococcus faecium; assay: Minimum inhibitory concentration against vancomycin-A Enterococcus faecium in the presence of 30% bovine serum (n=1); assay type: functional
[18] = system: Enterococcus faecium; assay: Minimum inhibitory concentration against vancomycin-A Enterococcus faecium in the presence of 30% bovine serum (n=1) (range = 0.5-16mg/l); assay type: functional
[19] = system: Enterococcus faecalis; assay: Minimum inhibitory concentration against vancomycin-sensitive Enterococcus faecalis in the presence of 30% bovine serum (n=3) (range = <0.125-0.25); assay type: functional
[20] = system: Enterococcus faecalis; assay: Minimum inhibitory concentration against vancomycin-A Enterococcus faecalis (n=4) (range = 0.25-8mg/L)
[21] = system: Enterococcus faecium; assay: Minimum inhibitory concentration against vancomycin-sensitive Enterococcus faecium in the presence of 30% bovine serum (n=1); assay type: functional
[22] = system: Enterococcus faecalis; assay: Minimum inhibitory concentration against vancomycin-sensitive Enterococcus faecalis in the presence of 30% bovine serum (n=3) (range = 8-4); assay type: functional
[23] = system: Enterococcus faecium; assay: Minimum inhibitory concentration against vancomycin-A Enterococcus faecium in the presence of 30% bovine serum in the presence of 30% bovine serum (n=1); assay type: functional

Compound | MIC [1] [µg/mL] | MIC [2] [µg/mL] | MIC [3] [µg/mL] | MIC [4] [µg/mL] | MIC [5] [µg/mL] | MIC [6] [µg/mL] | MIC [8] [µg/mL] | MIC [9] [µg/mL] | MIC [10] [µg/mL] | MIC [14] [µg/mL] | other results
CCCCOc1ccc(CNC2[C@H](Oc3c4cc5cc3Oc3ccc(cc3Cl)[C@@H](O)C3NC(=O)[C@H](NC(=O)[C@@H]5NC(=O)[C@H]5NC(=O)[C@@H](Cc6ccc(cc6)O4)NC(=O)[C@H](NC)c4ccc(O)c(c4)Oc4cc(O)c(Cl)c5c4)c4ccc(O)c(c4)-c4c(O[C@H]5O[C@H](CO)[C@@H](O)[C@H](O)[C@@H]5O)cc(O)cc4[C@@H](C(=O)O)NC3=O)OC(C(=O)O)C(O)[C@@H]2O)cc1 (stereo not given in full) | 1 | 16 | 128 | 1 (≈ 0.584 µM) | > 128 | 1 | 32 | 1 (≈ 0.584 µM) |  |  | MIC [7]: 1 µg/mL
CN(Cc1ccc2ccccc2c1)[C@H]1C(=O)N[C@@H]2Cc3ccc(cc3)Oc3cc4cc(c3O[C@@H]3OC(C(=O)O)C(O)[C@H](O)C3NCc3ccc5ccccc5c3)Oc3ccc(cc3Cl)[C@@H](O)C3NC(=O)[C@H](NC(=O)[C@@H]4NC(=O)[C@@H](NC2=O)c2cc(cc(O)c2Cl)Oc2cc1ccc2O)c1ccc(O)c(c1)-c1c(O[C@H]2O[C@H](CO)[C@@H](O)[C@H](O)[C@@H]2O)cc(O)cc1[C@@H](C(=O)O)NC3=O (stereo not given in full) | 2 | 16 |  | 1 (≈ 0.546 µM) |  | 2 | 16 | 2 (≈ 1.09 µM) | < 0.125 |  | MIC [11]: > 128 µg/mL; MIC [12]: 128 µg/mL (≈ 69.9 µM)
CCCCc1ccc(CNC2[C@H](Oc3c4cc5cc3Oc3ccc(cc3Cl)[C@@H](O)C3NC(=O)[C@H](NC(=O)[C@@H]5NC(=O)[C@H]5NC(=O)[C@@H](Cc6ccc(cc6)O4)NC(=O)[C@H](NC)c4ccc(O)c(c4)Oc4cc(O)c(Cl)c5c4)c4ccc(O)c(c4)-c4c(O[C@H]5O[C@H](CO)[C@@H](O)[C@H](O)[C@@H]5O)cc(O)cc4[C@@H](C(=O)O)NC3=O)OC(C(=O)O)C(O)[C@@H]2O)cc1 (stereo not given in full) | 2 | 4 |  | 0.25 (≈ 0.147 µM) | > 128 | 0.25 | 16 | 0.25 (≈ 0.147 µM) | < 0.125 |  | MIC [13]: 128 µg/mL
CN(Cc1ccc(-c2ccccc2)cc1)[C@H]1C(=O)N[C@@H]2Cc3ccc(cc3)Oc3cc4cc(c3O[C@@H]3OC(C(=O)O)C(O)[C@H](O)C3N)Oc3ccc(cc3Cl)[C@@H](O)C3NC(=O)[C@H](NC(=O)[C@@H]4NC(=O)[C@@H](NC2=O)c2cc(cc(O)c2Cl)Oc2cc1ccc2O)c1ccc(O)c(c1)-c1c(O[C@H]2O[C@H](CO)[C@@H](O)[C@H](O)[C@@H]2O)cc(O)cc1[C@@H](C(=O)O)NC3=O (stereo not given in full) | 0.5 | 16 |  | 1 (≈ 0.583 µM) |  | 2 | 32 | 1 (≈ 0.583 µM) |  | 128 | MIC [15]: 0.5 µg/mL; MIC [16]: > 128 µg/mL
CN[C@H]1C(=O)N[C@@H]2Cc3ccc(cc3)Oc3cc4cc(c3O[C@@H]3OC(C(=O)NCCCN(C)C)C(O)[C@H](O)C3N)Oc3ccc(cc3Cl)[C@@H](O)C3NC(=O)[C@H](NC(=O)[C@@H]4NC(=O)[C@@H](NC2=O)c2cc(cc(O)c2Cl)Oc2cc1ccc2O)c1ccc(O)c(c1)-c1c(O[C@H]2O[C@H](CO)[C@@H](O)[C@H](O)[C@@H]2O)cc(O)cc1[C@@H](C(=O)NCCCN(C)C)NC3=O (stereo not given in full) | 1 |  |  | 2 (≈ 1.16 µM) |  | 1 | 0.05 | 1 (≈ 0.582 µM) | 1 | 128 | MIC [17]: > 128 µg/mL
CCCCc1ccc(CNC2[C@H](Oc3c4cc5cc3Oc3ccc(cc3Cl)[C@@H](O)C3NC(=O)[C@H](NC(=O)[C@@H]5NC(=O)[C@H]5NC(=O)[C@@H](Cc6ccc(cc6)O4)NC(=O)[C@H](N(C)Cc4ccc(CCCC)cc4)c4ccc(O)c(c4)Oc4cc(O)c(Cl)c5c4)c4ccc(O)c(c4)-c4c(O[C@H]5O[C@H](CO)[C@@H](O)[C@H](O)[C@@H]5O)cc(O)cc4[C@@H](C(=O)NCCCN(C)C)NC3=O)OC(C(=O)NCCCN(C)C)C(O)[C@@H]2O)cc1 (stereo not given in full) | 0.5 | 2 |  | 2 (≈ 0.995 µM) |  | 0.25 | 2 | 1 (≈ 0.497 µM) |  |  | MIC [18]: 16 µg/mL; MIC [19]: < 0.125 µg/mL; MIC [20]: 8 µg/mL (≈ 3.98 µM)
CCCCc1ccc(CN(C)[C@H]2C(=O)N[C@@H]3Cc4ccc(cc4)Oc4cc5cc(c4O[C@@H]4OC(C(=O)O)C(O)[C@H](O)C4N)Oc4ccc(cc4Cl)[C@@H](O)C4NC(=O)[C@H](NC(=O)[C@@H]5NC(=O)[C@@H](NC3=O)c3cc(cc(O)c3Cl)Oc3cc2ccc3O)c2ccc(O)c(c2)-c2c(O[C@H]3O[C@H](CO)[C@@H](O)[C@H](O)[C@@H]3O)cc(O)cc2[C@@H](C(=O)O)NC4=O)cc1 (stereo not given in full) | 0.5 | 8 |  | 1 (≈ 0.589 µM) |  | 1 | 32 | 1 (≈ 0.589 µM) |  | 128 | MIC [15]: 0.5 µg/mL; MIC [16]: > 128 µg/mL
CN(C)CCCNC(=O)C1O[C@@H](Oc2c3cc4cc2Oc2ccc(cc2Cl)[C@@H](O)C2NC(=O)[C@H](NC(=O)[C@@H]4NC(=O)[C@H]4NC(=O)[C@@H](Cc5ccc(cc5)O3)NC(=O)[C@H](N(C)Cc3ccc(C(=O)Oc5ccccc5)cc3)c3ccc(O)c(c3)Oc3cc(O)c(Cl)c4c3)c3ccc(O)c(c3)-c3c(O[C@H]4O[C@H](CO)[C@@H](O)[C@H](O)[C@@H]4O)cc(O)cc3[C@@H](C(=O)NCCCN(C)C)NC2=O)C(NCc2ccc(C(=O)Oc3ccccc3)cc2)[C@@H](O)C1O (stereo not given in full) | 0.5 | 2 |  | 1 (≈ 0.467 µM) |  | 0.25 | 2 | 1 (≈ 0.467 µM) |  |  | MIC [18]: > 16 µg/mL; MIC [19]: 0.25 µg/mL
CN[C@H]1C(=O)N[C@@H]2Cc3ccc(cc3)Oc3cc4cc(c3O[C@@H]3OC(C(=O)O)C(O)[C@H](O)C3N)Oc3ccc(cc3Cl)[C@@H](O)C3NC(=O)[C@H](NC(=O)[C@@H]4NC(=O)[C@@H](NC2=O)c2cc(cc(O)c2Cl)Oc2cc1ccc2O)c1ccc(O)c(c1)-c1c(O[C@H]2O[C@H](CO)[C@@H](O)[C@H](O)[C@@H]2O)cc(O)cc1[C@@H](C(=O)O)NC3=O (stereo not given in full) |  |  | > 128 | 16 (≈ 10.3 µM) |  |  |  | 16 (≈ 10.3 µM) |  |  | MIC [21]: 8 µg/mL; MIC [22]: 8 µg/mL; MIC [23]: > 128 µg/mL
CN[C@H]1C(=O)N[C@@H]2Cc3ccc(cc3)Oc3cc4cc(c3O[C@@H]3OC(C(=O)O)C(O)[C@H](O)C3NCc3ccc5ccccc5c3)Oc3ccc(cc3Cl)[C@@H](O)C3NC(=O)[C@H](NC(=O)[C@@H]4NC(=O)[C@@H](NC2=O)c2cc(cc(O)c2Cl)Oc2cc1ccc2O)c1ccc(O)c(c1)-c1c(O[C@H]2O[C@H](CO)[C@@H](O)[C@H](O)[C@@H]2O)cc(O)cc1[C@@H](C(=O)O)NC3=O (stereo not given in full) | 2 | 16 | 128 | 1 (≈ 0.592 µM) | > 128 | 2 | 32 | 2 (≈ 1.18 µM) |  |  | MIC [7]: 1 µg/mL
